Residues, ends and D or L forms follow the SMILES beside them.
Legend:
Type in all cases: cell-based
[1] = test system: Human polymorphonuclear leukocytes (PMNs); test: Phagocytosis assay (fluorescent microspheres engulfed per PMN)
Method: Phagocytosis Assay Human polymorphonuclear leukocytes (PMNs) were prepared from venous blood of healthy donors. Heparinized blood was mixed with dextran and kept at 37° C. for 1 hour. The leukocyte-rich plasma was collected and centrifuged. The resulting pellet was washed with Hank's balanced salt solution (HBSS). The pellet was then suspended into HBSS, layered over Lymphocyte Separation Medium (LSM) and centrifuged. The sedimented cells were washed with HBSS. Contaminant erythrocytes were lysed by suspending the cells in sterile water for 15 seconds. The isotonicity was then restored by adding 10× HBSS. After centrifuging, the PMNs were washed with HBSS, suspended in the same medium, counted, and adjusted to 1×10^6 viable cells/ml (viability>95% by trypan blue dye exclusion). Cells (0.5×10^6 /well) were plated in 24 well plate and placed in a 37° C. CO2 incubator for 30 min to form a monolayer. Thereafter the supernatant was aspirated. Tuftsin or analog in 250 μl HBSS and 2.5×10^7 fluorescent microspheres (2 μm diameter) in 250 μl HBSS, were added to each well resulting in a particle to PMN ratio of 50:1, mixed, and incubated for 15 min. The supernatant was then quickly aspirated and each well washed with HBSS. One ml of trypsin (0.25% in saline) was added to each well and the plate incubated for 15 min to detach the cells and remove non-engulfed particles associated on the surface of PMN. The cells were transferred, layered over 2 ml fetal bovine serum (FBS), and centrifuged. The supernatant containing free particles were removed. The cell pellet was suspended, fixed in 2% paraformaldehyde, and plated again into a well. After 10 min, particles engulfed per PMN were counted under a microscope (100 cells per well). The mean values from triplicates were used to calculate percent phagocytosis increase over control mean value. Using purified cyclo[[…]] (SEQ ID no. 1) as an example, we have examined in vitro biological activities of this peptide. A phagocytosis assay was performed to compare the activity of cyclo[[…]] (SEQ ID no. 1) to that of tuftsin. The optimum concentration of tuftsin in this assay is 5 μg/ml. However, the optimum concentration for cyclo[[…]]

[2] = test system: THP-1 (human acute monocytic leukemia) cell line; test: Thymidine incorporation assay (growth stimulation effect); details: THP-1 cells, at 0.001 and 10 μg/ml; FIG. 2
Method: Thymidine Incorporation Assay
THP-1 (a human acute monocytic leukemia line) cells were subcultured in RPMI-1640 medium with 10% FBS. Next day THP-1 cells were collected, washed with RPMI-1640 medium with 2% FBS, and plated into well with peptide (1×10^6 cell in 1 ml). The plate was incubated for 18 hours. ^3 H-thymidine (0.1 μCi per well) was then introduced. The plate was incubated for another hour. The cells were collected into a tube using 1 ml of cold HBSS. After washing the cells twice, the cells were mixed with 0.2 ml of 0.1% sodium dodecyl sulfate, and transferred to a liquid scintillation vial for determination of radioactivity. The mean values from triplicates were used to calculate percent increase over control mean value.
To examine the growth stimulating effect of peptides, a thymidine incorporation experiment was performed using THP-1 (human acute monocytic leukemia) cell line.

[3] = test system: human NK cells; test: Tumor cell cytotoxicity assay by human NK cells (4 hour 51Cr release, K-562 targets); details: effector:target ratios of 25:1 and 50:1, peptide concentration 1 μg/ml, FIG. 3
Method: Tumor Cell Cytotoxicity Assay by Human NK Cells
Heparinized blood was layered over Leukoprep tube (30 ml per tube), and centrifuged. The mononuclear cells at interphase were collected, washed with HBSS, suspended in RPMI-1640 medium with 10% FBS (15 ml per 30 ml starting blood), plated on Petri dishes, and incubated for 1 hour. Non-adherent cells were collected, suspended in RPMI-1640 medium with 5% FBS, and adjusted to 1×10^6 /ml for 4 hour ^51 Cr release assay. The viability of this NK cell enriched fraction was assessed with trypan blue.
The tumor target cells, K-562, were harvested from culture, washed with RPMI-1640 medium with 5% FBS, and centrifuged. Pelleted cells of 2×10^6 K-562 were suspended into 0.2 ml of 100 μCi of ^51 CrO4 in saline, and labelled for 90 min in the incubator. The labelled target cells were washed with RPMI-1640 medium with 5% FBS, suspended in the same medium, and adjusted to a suspension of 2×10^5 /ml. […] Filters containing radioactive supernatants were counted on a γ counter, and counts per minutes (cpm) were recorded. Percent cytotoxicity (% specific lysis) was calculated by the following formula: […]
Spontaneous cpm was obtained by incubating the tumor target cells alone in the medium. Maximum cpm was obtained by releasing the radioactivity from the target cells by treatment with Triton X-100. […]

Which results are given for `C[C@@H](O)[C@@H]1NC(=O)CNC(=O)[C@H](CCCNC(=N)N)NC(=O)[C@@H]2CCCN2C(=O)[C@H](CCCCN)NC1=O` [cyclo[Thr-Lys-Pro-Arg-Gly]] (cyclo(GTKPR))?
extent of phagocytosis compared with tuftsin at 5 μg/ml ([1]; 0.1 μg/ml of cyclic peptide vs 5 μg/ml of tuftsin): no significant difference; potency in phagocytosis assay compared with tuftsin ([1]; at lower concentrations of 0.01 and 0.1 μg/ml, Student t-test, FIG. 1): significantly superior potency over tuftsin; optimum concentration in phagocytosis assay ([1]; human PMNs, 15 min incubation, particle to PMN ratio 50:1, FIG. 1): 0.1 µg/mL; optimum concentration, fold lower than tuftsin ([1]; phagocytosis assay, human PMNs): 50 fold; growth stimulating activity (3H-thymidine incorporation) compared with tuftsin [2]: significantly greater activities than tuftsin; enhancement of NK tumor cell cytotoxicity compared with tuftsin [3]: significantly greater cytotoxicity

Reference: patent publication US6177405A, “Cyclic analogs of tuftsin” (priority 1992, dated 2001)
